Measured values: PubChem BioAssay AID1745844 (Carcinogenic Potency Database (CPDB), 2022)
The source made the active and inactive calls. The rule behind the calls is not given here.

System: rodent lifetime carcinogenesis bioassay, tumor incidence TD50
Assay: chronic cancer bioassays in animals – CPDB, compiled studies (AID 1745844)
Conditions: in feed

NC(=O)NN=Cc1ccc([N+](=O)[O-])o1
TD50 (mouse, strain B6C3F1, females, site: any site (literature study), lesion: several types, types named in the paper, dosed 103 weeks, study length 104 weeks): 66.2 mg/kg/day | TD50 (mouse, strain B6C3F1, females, site: lung, lesion: alveolar/bronchiolar adenoma + alveolar/bronchiolar carcinoma, dosed 103 weeks, study length 104 weeks): 241 mg/kg/day | TD50 (mouse, strain B6C3F1, females, site: ovary, lesion: granulosa-cell tumor + mixed tumor, benign, dosed 103 weeks, study length 104 weeks): 22.4 mg/kg/day | TD50 (mouse, strain B6C3F1, females, site: ovary, lesion: granulosa-cell tumor, dosed 103 weeks, study length 104 weeks): 124 mg/kg/day | TD50 (mouse, strain B6C3F1, females, site: ovary, lesion: mixed tumor, benign + tubular adenoma, dosed 103 weeks, study length 104 weeks): 29.8 mg/kg/day | TD50 (mouse, strain B6C3F1, females, site: ovary, lesion: mixed tumor, benign, dosed 103 weeks, study length 104 weeks): 30.8 mg/kg/day | TD50 (mouse, strain B6C3F1, males, site: any site (literature study), lesion: several types, types named in the paper, dosed 103 weeks, study length 104 weeks): 89.3 mg/kg/day | TD50 (mouse, strain B6C3F1, males, site: liver, lesion: hepatocellular adenoma + hepatocellular carcinoma + neoplastic nodule, dosed 103 weeks, study length 104 weeks): 152 mg/kg/day | TD50 (mouse, strain B6C3F1, males, site: lung, lesion: alveolar/bronchiolar adenoma + alveolar/bronchiolar carcinoma, dosed 103 weeks, study length 104 weeks): 1380 mg/kg/day | TD50 (mouse, strain B6C3F1, males, site: subcutaneous tissue, lesion: fibrosarcoma + fibroma + neurofibrosarcoma + sarcoma, NOS, dosed 103 weeks, study length 104 weeks): 154 mg/kg/day (inactive) | TD50 (rat, strain Fischer 344, females, site: liver, lesion: hepatocellular adenoma + hepatocellular carcinoma + neoplastic nodule, dosed 103 weeks, study length 104 weeks): 253 mg/kg/day | TD50 (rat, strain Fischer 344, females, site: mammary gland, lesion: fibroadenoma, dosed 103 weeks, study length 104 weeks): 15.7 mg/kg/day | TD50 (rat, strain Fischer 344, males, site: any site (literature study), lesion: several types, types named in the paper, dosed 103 weeks, study length 104 weeks): 33.8 mg/kg/day | TD50 (rat, strain Fischer 344, males, site: preputial gland, lesion: carcinoma, NOS, dosed 103 weeks, study length 104 weeks): 65.5 mg/kg/day | TD50 (rat, strain Fischer 344, males, site: skin, lesion: sebaceous adenoma + trichoepithelioma, dosed 103 weeks, study length 104 weeks): 151 mg/kg/day | TD50 (rat, strain Fischer 344, males, site: skin, lesion: sebaceous adenoma, dosed 103 weeks, study length 104 weeks): 177 mg/kg/day | TD50 (rat, strain Fischer 344, males, site: tunica vaginalis, lesion: mesothelioma, NOS + mesothelioma, malignant, dosed 103 weeks, study length 104 weeks): 44 mg/kg/day | TD50 (rat, strain Holtzman albino (Sprague-Dawley derived), females, site: mammary gland, lesion: fibroadenoma, dosed 36 weeks, study length 54 weeks): 6.52 mg/kg/day | carcinogen call (rat, strain Holtzman albino (Sprague-Dawley derived), females, site: mammary tissue, wider than the gland, lesion: one or several types, types not named, dosed 44 weeks, study length 60 weeks): positive | TD50 (rat, strain Sprague-Dawley, females, site: mammary tissue, wider than the gland, lesion: one or several types, types not named, dosed 46 weeks, study length 66 weeks): 7.12 mg/kg/day

NC(=O)CCCCC(N)=O
carcinogen call (mouse, strain C57BL/6, females, site: liver, lesion: hepatocellular carcinoma, dosed 52 weeks, study length 69 weeks): negative (inactive) | TD50 (mouse, strain C57BL/6, females, site: lung, lesion: alveolar/bronchiolar adenoma, dosed 52 weeks, study length 69 weeks): 8550 mg/kg/day (inactive) | carcinogen call (mouse, strain C57BL/6, males, site: liver, lesion: hepatocellular carcinoma, dosed 52 weeks, study length 69 weeks): negative (inactive) | carcinogen call (mouse, strain C57BL/6, males, site: lung, lesion: alveolar/bronchiolar adenoma, dosed 52 weeks, study length 69 weeks): negative (inactive) | carcinogen call (rat, strain Fischer 344, females, site: liver, lesion: one or several types, types not named, dosed 52 weeks, study length 69 weeks): negative (inactive) | TD50 (rat, strain Fischer 344, males, site: liver, lesion: hepatocellular carcinoma, dosed 52 weeks, study length 69 weeks): 6420 mg/kg/day
